Measured values from article PMC10459118, “The Effect of Plastic-Related Compounds on Transcriptome-Wide Gene Expression on CYP2C19-Overexpressing HepG2 Cells” (Molecules, 2023).

Columns and labels:
in vitro = details: human
Experimental: (§1) To investigate the effects of the in silico identified compounds on cell viability, we used CYP2C19-overexpressing HepG2 cells (Figure 3). Different concentrations (ranging from 0.003 to 100 μM) were tested.
(§2) Figure 3 Resazurin assay of cytochrome P450 2C19-overexpressing HepG2 cells treated with different concentrations of the six selected compounds. All experiments were performed in three replicate measurements of mean ± SD.
(§3) CYP2C19-overexpressing HepG2 cells were originated as previously described. Cells were grown in DMEM medium (DMEM, 31966021, Gibco™, Billings, MT, USA) at 37 °C and 5% CO2 in a humidified incubator. DMEM media were supplemented with 10% fetal bovine serum (FBS) and with 3 μg/mL blasticidin (ant-bl-05, InvivoGen, San Diego, CA, USA) to preserve the selection of transfected CYP2C19-overexpressing HepG2 cells.
(§4) Aliquots of 10^4 CYP2C19-overexpressing HepG2 cells were seeded per well into 96-well plates. Cells were treated with different concentrations of the selected compounds with a range from 0.003 to 100 µM in a total volume of 200 µL for 72 h. Successively, 20 µL/well of resazurin 0.01% w/v (Sigma Aldrich, Taufkirchen, Germany) was added. The fluorescence intensity was measured with an Infinite M200 Pro-plate reader (Tecan, Crailsheim, Germany). Dose–response curves were engendered for three independent experiments for each compound, and 50% inhibition concentrations (IC50) were calculated. The analysis was represented using the […] GraphPad Software (version 9.5.1) (La Jolla, CA, USA).

[1] = test system: CYP2C19-overexpressing HepG2 cells; format: cell-based
Experimental: Figure 8 Flow cytometric cell cycle analysis of cytochrome CYP2C19-overexpressing HepG2 cells treated with IC50 concentrations of compounds 4 and 6. The data are represented as mean and SD of three independent experiments. (* p < 0.05, ** p < 0.01, compared to DMSO-treated cells).
CYP2C19-overexpressing HepG2 cells were treated with IC50 concentrations of compounds 4 and 6 for 24 h. Then, the cells were fixed using 80% cold ethanol and stored overnight at −20 °C. Successively, the cells were washed twice with PBS and resuspended in 1 mL of cold PBS containing 1mg/mL RNaseA (Sigma-Aldrich, Taufkirchen, Germany) and 50 μg/mL PI (Sigma-Aldrich, Taufkirchen, Germany). After 15 min of incubation, the measurements were performed using a BD LSRFortessa™ Cell Analyzer (Becton-Dickinson, Heidelberg, Germany). DMSO-treated cells were used as a negative control.

[2] = test system: CYP2C19-overexpressing HepG2 cells; experiment: RNA sequencing with pathway enrichment analysis; format: cell-based; details: for genes of 'cholesterol biosynthetic process' influenced by only one compound: Venn diagram of compounds 4-6, vs DMSO; for genes of 'DNA replication' pathway exclusively influenced by the compound: Venn diagram of compounds 4 and 6, vs DMSO
Experimental: Functional enrichment analysis with clusterProfiler was executed using the gene ontology biological process annotation. Finally, with the GeneTonic software (version 2.4.0), a visual summary of the influenced pathways, from here on referred to as 'enriched pathways', was created. […] The size of the dots corresponds to the number of genes in the reference gene set. […] Control cells were treated with 0.2% DMSO. After 24 h of incubation, the cells were harvested. RNA extraction was performed with an […] RNA Mini Kit (Invitek Molecular GmbH, Berlin, Germany) according to the manufacturer's instructions. The cell pellet was lysed with 350 μL of Lysis Solution and treated with β-mercaptoethanol. After DNA removal, 350 μL of 70% ethanol was added, and the sample was applied onto the RNA-RTA spin filter. After several washing steps, RNA was eluted with 60 μL of Elution Buffer R, and the concentration and purity were measured with NanoDrop. RNA sequencing was performed by […] GmbH, Mainz, Germany. The quality of the extracted RNA was verified by the company with a 2100 Bioanalyzer system (Agilent Technologies, Santa Clara, CA, USA). After mRNA isolation and library preparation using a NEBNext^© UltraTM II Directional RNA Library Prep Kit (New England Biolabs, Ipswich, MA, USA), RNA sequencing of around 25 Mio PE reads (2 × 12.5 M reads, 2 × 150 nt) was performed with an Illumina NextSeq 2000TM system. Each treatment and control group included two replicates. The FastQC tool (0.12.0, https://www.bioinformatics.babraham.ac.uk/projects/fastqc/) (accessed 15 February 2023) was used for quality control on the sequencing data. Transcript abundance estimates were computed with Salmon (version 1.5.0) with a transcriptome index generated by GENCODE (version 38) and then summarized to the gene level with the […] package (version 1.16.0). Exploration, modelling, and interpretation of the expression data followed the protocols defined by Ludt et al. […] Exploratory data analysis was performed with the pcaExplorer package (version 2.24.0). […] Accurate estimation of the effect sizes (described as log2-fold changes) was performed using the […] shrinkage estimator (version 1.20.0). Further analyses included gene ontology pathway enrichment by topGO (version 2.50.0) using all expressed genes as a background dataset and the ideal package (version 1.22.0) and by clusterProfiler (version 4.6.0) with default settings and the log2-fold change as the input.

[3] = test system: CYP2C19-overexpressing HepG2 cells; experiment: Resazurin reduction assay (growth inhibition / cytotoxicity); details: CYP2C19-overexpressing HepG2 cells, 0.003 to 100 μM, 72 h
Experimental: as §1, §2, §3, §4

[4] = IC50 concentration, 24 h, vs DMSO

| SMILES | IC50 at 72 h (in vitro) [µM] | G0/G1 population [1] [%] | percentage change in the sub-G0 and G2/M phases [1] | percentage of S-phase cells [1] [%] | mitosis-related pathways ('mitotic sister chromatid segregation', 'sister chromatid segregation', 'regulation of mitotic sister chromatid separation', 'chromosome organization') [2, 4] | pathway 'DNA replication' [2, 4] | genes of 'cholesterol biosynthetic process' influenced by only one compound [2] | genes of 'DNA replication' pathway exclusively influenced by the compound [2] | cell death mechanisms 'autophagy' and 'process utilizing autophagic mechanism' [2, 4] | pathways 'cholesterol metabolic process' and 'sterol metabolic process' [2, 4] | pathways 'cytokine production' and 'regulation of cytokine production' [2, 4] | affected genes related to 'regulation of cytokine production' ([2]; vs DMSO) [genes] | other results |
| --- | --- | --- | --- | --- | --- | --- | --- | --- | --- | --- | --- | --- | --- |
| Cc1cc(Cc2cc(C)cc(C3CCCCC3)c2O)c(O)c(C2CCCCC2)c1 [compound 6, 2,2′-methylene bis(6-cyclohexyl-4-methylphenol)] | 20.16 ± 0.06 | 72.30 ± 1.68 | No significant percentage change | 6.76 ± 3.28 | suppressed | suppressed | one | nine |  |  |  |  | angiogenesis-related pathways 'vasculature development', 'blood vessel morphogenesis', 'blood vessel development' [2, 4]: activated; pathway 'inflammatory response' [2, 4]: activated; pathway 'response to nutrients levels' [2, 4]: activated; pathways 'nuclear chromosome segregation', 'mitotic nuclear division', 'chromosome segregation' [2, 4]: down-regulated |
| O=C(OC1CCCCC1)c1ccccc1C(=O)OC1CCCCC1 [compound 1, dicyclohexyl phthalate] | 88 ± 7.77 |  |  |  |  |  |  |  |  |  |  |  |  |
| CC(c1cc(C(C)(C)C)cc(C(C)(C)C)c1O)c1cc(C(C)(C)C)cc(C(C)(C)C)c1O [compound 5, 1,1-bis(3,5-di-tert-butyl-2-hydroxyphenyl)ethane] | 18.1 ± 0.68 |  |  |  |  |  | three |  | activated | suppressed | activated | 80 | pathways 'steroid biosynthetic process', 'alcohol biosynthetic pathway', 'alcohol metabolic process', 'organic hydroxy compound metabolic process' [2, 4]: suppressed |
| Cc1cc(Cc2cc(C)cc(C(C)(C)C)c2O)c(O)c(C(C)(C)C)c1 [compound 4, 2,2′-methylene bis(6-tert-butyl-4-methylphenol)] | 18.6 ± 0.94 | 74.11 ± 1.98 | No significant percentage change | 8.05 ± 1.92 | suppressed | suppressed | two | Forty-one | activated | suppressed | activated | 82 | pathway 'DNA-templated DNA replication' [2, 4]: suppressed; pathway 'metaphase/anaphase transition of mitotic cell cycle' [2, 4]: suppressed |
| CC(C)COC(=O)c1ccccc1C(=O)OCC(C)C [compound 2, diisobutyl phthalate] | > 100 |  |  |  |  |  |  |  |  |  |  |  | cytotoxic effect [3]: did not exhibit any cytotoxic effect |
| CC(C)(C)CC(C)(C)c1ccc(O)c(-n2nc3ccccc3n2)c1 [compound 3, octrizole] | 67.5 ± 2.05 |  |  |  |  |  |  |  |  |  |  |  |  |
